According to patent publication US20230058171A1, “NEW ORAL PHARMACEUTICAL COMPOSITION FOR CANCER THERAPY” (BOEHRINGER INGELHEIM INTERNATIONAL GMBH, priority 2021, published 2023):

System: patients with advanced or metastatic solid tumors
Assay: Trial 1403-0001 Phase Ia dose escalation, Arm B (D1 D8 q4w): adverse events
Format: in vivo
Details: for AEs leading to Discontinuation: Dose limiting toxicity, % / AEs leading to Discontinuation: Other adverse event, % / Patients with Dose limiting toxicity, % / Serious AEs: Cogenital Anomaly or Birth Defect, % / Serious AEs: Is Life Threatening, % / Serious AEs: Other Medically Important Serious Event, % / Serious AEs: Persists of Signif. Disability/Incapacity, % / Serious AEs: Requires or Prolongs Hospitalization, % / Serious AEs: Results in Death, % / Subjects with AEs leading to Discontinuation of trial drug, % / Subjects with AEs leading to dose reduction of trial drug, % / Subjects with any AE, % / Subjects with investigator defined drug-related AEs, % / Subjects with maximum CTC Grade 1, % / Subjects with maximum CTC Grade 2, % / Subjects with maximum CTC Grade 3, % / Subjects with maximum CTC Grade 4, % / Subjects with maximum CTC Grade 5, % / Subjects with serious AEs, %: Arm B D1 D8 q4w
Description: The Phase Ia dose escalation part aimed to define the Maximum Tolerated Dose (MTD) and the Recommended Dose for Expansion (RDE) for the MDM2-antagonist of formula I based on safety and tolerability, pharmacokinetics, pharmacodynamics, and preliminary efficacy. The RDE will be further explored in the Phase Ib expansion part of the trial.
Dose levels evaluated in Arm A were 10, 20, 30, 45, 50, 60, and 80 mg. Dose levels evaluated in Arm B (referring to the dose administered on Day 1 and Day 8) were 5, 10, 15, 20, 30, 45, and 60 mg.

Cc1c(C(=O)O)ccc2c3n(nc12)[C@@H]1[C@H](C3)N(CC2CC2)[C@@]2(C(=O)Nc3cc(Cl)ccc32)[C@H]1c1cccc(Cl)c1F [MDM2-antagonist of formula I, (2′S,3′S,3a'S,10a'S)-6-chloro-3′-(3-chloro-2-fluorophenyl)-1′-(cyclopropylmethyl)-6′-methyl-2-oxo-1,2,3′,3a′,10′,10a′-hexahydro-1′H-spiro[indole-3,2′-pyrrolo[2′,3′:4,5]pyrrolo[1,2-b]indazole]-7′-carboxylic acid]
20.0%: Subjects with maximum CTC Grade 1, % (Total) | dose reduction due to neutropenia and/or thrombocytopenia, patients (Arm B, all 25 patients)
25.0%: Serious AEs: Other Medically Important Serious Event, % (30 mg) | Subjects with maximum CTC Grade 2, % (30 mg) | Subjects with maximum CTC Grade 4, % (30 mg) | Subjects with serious AEs, % (30 mg)
50%: Subjects with AEs leading to dose reduction of trial drug, % (30 mg)
92.0%: Subjects with investigator defined drug-related AEs, % (Total) | AE nausea, patients (Arm B, all 25 patients)
12.0%: Patients with Dose limiting toxicity, % (Total) | Serious AEs: Other Medically Important Serious Event, % (Total)
28.0%: Serious AEs: Requires or Prolongs Hospitalization, % (Total) | Subjects with maximum CTC Grade 3, % (Total) | AE platelet count decreased, patients (Arm B, all 25 patients) | drug-related AE decreased appetite, patients (Arm B, all 25 patients) | drug-related AE platelet count decreased, patients (Arm B, all 25 patients)
16.7%: AEs leading to Discontinuation: Other adverse event, % (45 mg) | Patients with Dose limiting toxicity, % (45 mg) | Serious AEs: Other Medically Important Serious Event, % (45 mg) | Serious AEs: Persists of Signif. Disability/Incapacity, % (45 mg) | Subjects with AEs leading to Discontinuation of trial drug, % (45 mg) | Subjects with AEs leading to dose reduction of trial drug, % (45 mg) | Subjects with maximum CTC Grade 4, % (45 mg)
33.3%: Subjects with investigator defined drug-related AEs, % (5 mg) | Subjects with maximum CTC Grade 2, % (5 mg) | Serious AEs: Requires or Prolongs Hospitalization, % (10 mg) | Subjects with AEs leading to dose reduction of trial drug, % (10 mg) | Subjects with maximum CTC Grade 2, % (10 mg) | Subjects with serious AEs, % (10 mg) | Serious AEs: Requires or Prolongs Hospitalization, % (15 mg) | Subjects with maximum CTC Grade 1, % (15 mg) | Subjects with serious AEs, % (15 mg) | Serious AEs: Other Medically Important Serious Event, % (20 mg) | Serious AEs: Requires or Prolongs Hospitalization, % (20 mg) | Subjects with maximum CTC Grade 3, % (20 mg) | Subjects with serious AEs, % (20 mg) | Serious AEs: Requires or Prolongs Hospitalization, % (45 mg) | Subjects with maximum CTC Grade 2, % (45 mg) | Subjects with maximum CTC Grade 3, % (60 mg)
32.0%: drug-related AE diarrhea, patients (Arm B, all 25 patients)
No fatal AEs were reported: fatal AEs (Arm B, all 25 patients)
4.0%: AEs leading to Discontinuation: Other adverse event, % (Total) | Serious AEs: Persists of Signif. Disability/Incapacity, % (Total) | Subjects with AEs leading to Discontinuation of trial drug, % (Total) | dose reduction due to diarrhea, patients (Arm B, all 25 patients)
24.0%: Subjects with AEs leading to dose reduction of trial drug, % (Total, listed as Comp. I) | AE alopecia, patients (Arm B, all 25 patients) | drug-related AE alopecia, patients (Arm B, all 25 patients)
44.0%: AE diarrhea, patients (Arm B, all 25 patients)
24%: Subjects with AEs leading to dose reduction of trial drug, % (Total)
36.0%: Subjects with maximum CTC Grade 2, % (Total) | Subjects with serious AEs, % (Total)
60.0%: drug-related AE vomiting, patients (Arm B, all 25 patients)
16.0%: Subjects with maximum CTC Grade 4, % (Total)
76.0%: drug-related AE nausea, patients (Arm B, all 25 patients)
100%: Subjects with any AE, % (5 mg) | Subjects with any AE, % (10 mg) | Subjects with investigator defined drug-related AEs, % (10 mg) | Subjects with any AE, % (15 mg) | Subjects with investigator defined drug-related AEs, % (15 mg) | Subjects with any AE, % (20 mg) | Subjects with investigator defined drug-related AEs, % (20 mg) | Subjects with any AE, % (30 mg) | Subjects with investigator defined drug-related AEs, % (30 mg) | Subjects with any AE, % (45 mg) | Subjects with investigator defined drug-related AEs, % (45 mg) | Subjects with any AE, % (60 mg) | Subjects with investigator defined drug-related AEs, % (60 mg) | Subjects with any AE, % (Total)
0%: AEs leading to Discontinuation: Dose limiting toxicity, % (5 mg) | AEs leading to Discontinuation: Other adverse event, % (5 mg) | Patients with Dose limiting toxicity, % (5 mg) | Serious AEs: Cogenital Anomaly or Birth Defect, % (5 mg) | Serious AEs: Is Life Threatening, % (5 mg) | Serious AEs: Other Medically Important Serious Event, % (5 mg) | Serious AEs: Persists of Signif. Disability/Incapacity, % (5 mg) | Serious AEs: Requires or Prolongs Hospitalization, % (5 mg) | Serious AEs: Results in Death, % (5 mg) | Subjects with AEs leading to Discontinuation of trial drug, % (5 mg) | Subjects with AEs leading to dose reduction of trial drug, % (5 mg) | Subjects with maximum CTC Grade 3, % (5 mg) | Subjects with maximum CTC Grade 4, % (5 mg) | Subjects with maximum CTC Grade 5, % (5 mg) | Subjects with serious AEs, % (5 mg) | AEs leading to Discontinuation: Dose limiting toxicity, % (10 mg) | AEs leading to Discontinuation: Other adverse event, % (10 mg) | Patients with Dose limiting toxicity, % (10 mg) | Serious AEs: Cogenital Anomaly or Birth Defect, % (10 mg) | Serious AEs: Is Life Threatening, % (10 mg) | Serious AEs: Other Medically Important Serious Event, % (10 mg) | Serious AEs: Persists of Signif. Disability/Incapacity, % (10 mg) | Serious AEs: Results in Death, % (10 mg) | Subjects with AEs leading to Discontinuation of trial drug, % (10 mg) | Subjects with maximum CTC Grade 1, % (10 mg) | Subjects with maximum CTC Grade 4, % (10 mg) | Subjects with maximum CTC Grade 5, % (10 mg) | AEs leading to Discontinuation: Dose limiting toxicity, % (15 mg) | AEs leading to Discontinuation: Other adverse event, % (15 mg) | Patients with Dose limiting toxicity, % (15 mg) | Serious AEs: Cogenital Anomaly or Birth Defect, % (15 mg) | Serious AEs: Is Life Threatening, % (15 mg) | Serious AEs: Other Medically Important Serious Event, % (15 mg) | Serious AEs: Persists of Signif. Disability/Incapacity, % (15 mg) | Serious AEs: Results in Death, % (15 mg) | Subjects with AEs leading to Discontinuation of trial drug, % (15 mg) | Subjects with AEs leading to dose reduction of trial drug, % (15 mg) | Subjects with maximum CTC Grade 3, % (15 mg) | Subjects with maximum CTC Grade 4, % (15 mg) | Subjects with maximum CTC Grade 5, % (15 mg) | AEs leading to Discontinuation: Dose limiting toxicity, % (20 mg) | AEs leading to Discontinuation: Other adverse event, % (20 mg) | Patients with Dose limiting toxicity, % (20 mg) | Serious AEs: Cogenital Anomaly or Birth Defect, % (20 mg) | Serious AEs: Is Life Threatening, % (20 mg) | Serious AEs: Persists of Signif. Disability/Incapacity, % (20 mg) | Serious AEs: Results in Death, % (20 mg) | Subjects with AEs leading to Discontinuation of trial drug, % (20 mg) | Subjects with AEs leading to dose reduction of trial drug, % (20 mg) | Subjects with maximum CTC Grade 1, % (20 mg) | Subjects with maximum CTC Grade 4, % (20 mg) | Subjects with maximum CTC Grade 5, % (20 mg) | AEs leading to Discontinuation: Dose limiting toxicity, % (30 mg) | AEs leading to Discontinuation: Other adverse event, % (30 mg) | Patients with Dose limiting toxicity, % (30 mg) | Serious AEs: Cogenital Anomaly or Birth Defect, % (30 mg) | Serious AEs: Is Life Threatening, % (30 mg) | Serious AEs: Persists of Signif. Disability/Incapacity, % (30 mg) | Serious AEs: Requires or Prolongs Hospitalization, % (30 mg) | Serious AEs: Results in Death, % (30 mg) | Subjects with AEs leading to Discontinuation of trial drug, % (30 mg) | Subjects with maximum CTC Grade 3, % (30 mg) | Subjects with maximum CTC Grade 5, % (30 mg) | AEs leading to Discontinuation: Dose limiting toxicity, % (45 mg) | Serious AEs: Cogenital Anomaly or Birth Defect, % (45 mg) | Serious AEs: Is Life Threatening, % (45 mg) | Serious AEs: Results in Death, % (45 mg) | Subjects with maximum CTC Grade 1, % (45 mg) | Subjects with maximum CTC Grade 5, % (45 mg) | AEs leading to Discontinuation: Dose limiting toxicity, % (60 mg) | AEs leading to Discontinuation: Other adverse event, % (60 mg) | Serious AEs: Cogenital Anomaly or Birth Defect, % (60 mg) | Serious AEs: Is Life Threatening, % (60 mg) | Serious AEs: Other Medically Important Serious Event, % (60 mg) | Serious AEs: Persists of Signif. Disability/Incapacity, % (60 mg) | Serious AEs: Results in Death, % (60 mg) | Subjects with AEs leading to Discontinuation of trial drug, % (60 mg) | Subjects with maximum CTC Grade 1, % (60 mg) | Subjects with maximum CTC Grade 2, % (60 mg) | Subjects with maximum CTC Grade 5, % (60 mg) | AEs leading to Discontinuation: Dose limiting toxicity, % (Total) | Serious AEs: Cogenital Anomaly or Birth Defect, % (Total) | Serious AEs: Is Life Threatening, % (Total) | Serious AEs: Results in Death, % (Total) | Subjects with maximum CTC Grade 5, % (Total)
50.0%: Subjects with maximum CTC Grade 1, % (30 mg) | Subjects with maximum CTC Grade 3, % (45 mg) | Subjects with serious AEs, % (45 mg)
66.7%: Subjects with maximum CTC Grade 1, % (5 mg) | Subjects with maximum CTC Grade 3, % (10 mg) | Subjects with maximum CTC Grade 2, % (15 mg) | Subjects with maximum CTC Grade 2, % (20 mg) | Patients with Dose limiting toxicity, % (60 mg) | Serious AEs: Requires or Prolongs Hospitalization, % (60 mg) | Subjects with AEs leading to dose reduction of trial drug, % (60 mg) | Subjects with maximum CTC Grade 4, % (60 mg) | Subjects with serious AEs, % (60 mg)
52.0%: AE fatigue, patients (Arm B, all 25 patients)
8.0%: Grade 3 AE anemia, patients (Arm B, all 25 patients) | Grade 3 AE platelet count decreased, patients (Arm B, all 25 patients) | Grade 4 AE neutrophil count decreased, patients (Arm B, all 25 patients) | Grade 4 AE platelet count decreased, patients (Arm B, all 25 patients) | SAE platelet count decreased, patients (Arm B, all 25 patients)
64.0%: AE vomiting, patients (Arm B, all 25 patients)
40.0%: AE decreased appetite, patients (Arm B, all 25 patients) | drug-related AE fatigue, patients (Arm B, all 25 patients)
